According to the supplement of paper PMC12490022:
± gives the uncertainty stated by the source.

test system: ozone; test: apparent second-order rate constant for reaction with ozone (kapp,O3) (M-1 s-1); higher = faster oxidation by ozone; settings: pH 7; temperature: 22 C; OH radical scavenger: tBuOH 80 mM; phosphate 4 mM
Description: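 Apparent second-order rate constants for reaction with ozone at pH 7 were determined by multicompound competition kinetics. Mixtures of targets and competitors (10 ug/L each) were ozonated in 4 mM phosphate buffer, pH 7, with 80 mM tBuOH as OH-radical scavenger, at 22 ± 1 °C. Peak-area abatement was measured by HPLC-HRMS/MS and k was derived from ln-ln slopes against competitors with known k (R2 > 0.9, >= 10 points, slope 0.1-10). Experiments were run in triplicate on 3 days; the value is the mean over valid competitors ± SD.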

Compound | apparent second-order rate constant
CNCCCC1(c2ccc(F)cc2)OCc2cc(C#N)ccc21 (centres undefined) [N-Desmethylcitalopram] | 532 ± 28
CCC1OC(=O)C(C)C(OC2CC(C)(OC)C(O)C(C)O2)C(C)C(OC2OC(C)CC(NC)C2O)C(C)(OC)CC(C)C(=O)C(C)C(O)C1(C)O (centres undefined) [N-Desmethylclarithromycin] | 6500 ± 520
CNCCC(c1ccccc1)c1ccccn1 (centres undefined) [N-Desmethylpheniramine] | 975 ± 49
CC(C)c1nc(NS(C)(=O)=O)nc(-c2ccc(F)cc2)c1C=CC(O)CC(O)CC(=O)O (centres undefined) [N-Desmethylrosuvastatin] | 26000 ± 2800
CNCC(c1ccc(OC)cc1)C1(O)CCCCC1 (centres undefined) [N-Desmethylvenlafaxine] | 993 ± 55
N#Cc1ccc2c(c1)COC2(CCCN)c1ccc(F)cc1 (centres undefined) [N-Didesmethylcitalopram] | 34.3 ± 2.1
CNCC(CC(=O)O)CC(C)C (centres undefined) [N-Methylpregabalin] | 143 ± 7.6
COC(=O)C(C)c1ccc2cc(OC)ccc2c1 (centres undefined) [Naproxen methyl ester] | 278000 ± 25000
COc1ccc2cc(C(C)C(=O)O)ccc2c1 (centres undefined) [Naproxen] | 500000 ± 46000
Cc1ccnc2c1NC(=O)c1cccnc1N2C1CC1 [Nevirapine] | 86 ± 9
CN1CCCC1c1cccnc1 (centres undefined) [Nicotine] | 332000 ± 30000
COc1ccc2c3c1OC1C(O)C=CC4C(C2)NCCC341 (centres undefined) [Norcodeine] | 2.68e+06 ± 51000
C#CCNC(C)Cc1ccccc1 (centres undefined) [Nordeprenyl] | 14000 ± 1200
CC(N)C(O)c1ccccc1 (centres undefined) [Norephedrine] | 45.5 ± 2.3
NCCC(Oc1ccc(C(F)(F)F)cc1)c1ccccc1 (centres undefined) [Norfluoxetine] | 42 ± 2.5
NC1(c2ccccc2Cl)CCCCC1=O (centres undefined) [Norketamine] | 37.5 ± 2.5

Compound | apparent second-order rate constant
c1ccc2c(c1)Cc1ccccc1N1CCNCC21 (centres undefined) [Normianserin] | 570000 ± 48000
c1cncc(C2CCCN2)c1 (centres undefined) [Nornicotine] | 6350 ± 520
CCOC(=O)c1c(COCC(=O)O)nc(C)c(C(=O)OC)c1-c1ccccc1Cl [O-Des[2-aminoethyl]-O-carboxymethyl-dehydroamlodipine] | 0.401 ± 0.014
Cc1cccc(C)c1NC(=O)CN1CCN(CC(O)CO)CC1 (centres undefined) [O-Desarylranolazine] | 570000 ± 48000
CC(C(=O)O)c1ccc2cc(O)ccc2c1 (centres undefined) [O-Desmethylnaproxen] | 6.6e+06 ± 500000
CN(C)CC(c1ccc(O)cc1)C1(O)CCCCC1 (centres undefined) [O-Desmethylvenlafaxine] | 2.09e+06 ± 170000
CCC(CC)OC1C=C(C(=O)O)CC(N)C1NC(C)=O (centres undefined) [Oseltamivir acid] | 87000 ± 7700
CCOC(=O)C1=CC(OC(CC)CC)C(NC(C)=O)C(N)C1 (centres undefined) [Oseltamivir] | 6130 ± 510
O=c1nc2[nH][nH]cc-2c(=O)[nH]1 [Oxypurinol] | 4 ± 2.5
COc1ccnc(CS(=O)c2nc3ccc(OC(F)F)cc3[nH]2)c1OC (centres undefined) [Pantoprazole] | 108 ± 5.6
CC(=O)Nc1ccc(O)c(SCC(NC(=O)CCC(N)C(=O)O)C(=O)NCC(=O)O)c1 (centres undefined) [Paracetamol-glutathione] | 1.1e+07 ± 2.4e+06
CC(C)CC(CN)CC(=O)O (centres undefined) [Pregabalin] | 15.6 ± 1.1
CNC(C)C(O)c1ccccc1 (centres undefined) [Pseudoephedrine] | 1370 ± 110
O=C(O)C(c1ccccc1)C1CCCCN1 (centres undefined) [Ritalinic acid] | 139 ± 7.2
CCC(c1cccc(OS(=O)(=O)O)c1)C(C)CN(C)C (centres undefined) [Tapentadol-O-sulfate] | 1530 ± 150
CCC(c1cccc(O)c1)C(C)CN(C)C (centres undefined) [Tapentadol] | 1.83e+06 ± 140000

Next, values leading:

apparent second-order rate constant | Compound
3.3 ± 0.3 | CC(=O)Nc1ccc(OS(=O)(=O)O)cc1 [Paracetamol-sulfate]
2.4e+06 ± 180000 | CC(=O)Nc1ccc(O)cc1 [Paracetamol]
68 ± 8 | C#CC[N+](C)([O-])Cc1ccccc1 (centres undefined) [Pargyline-N-oxide]
2.4 ± 0.3 | C[N+](C)([O-])CCC(c1ccccc1)c1ccccn1 (centres undefined) [Pheniramine-N-oxide]
17600 ± 1700 | CN(C)CCC(c1ccccc1)c1ccccn1 (centres undefined) [Pheniramine]
2890 ± 220 | CNCC(O)c1cccc(OS(=O)(=O)O)c1 (centres undefined) [Phenylephrine-3-O-sulfate]
158000 ± 7000 | CNCC(O)c1cccc(O)c1 (centres undefined) [Phenylephrine]
104 ± 5.6 | CC12C=CC(=O)C=C1CCC1C2C(O)CC2(C)C1CCC2(O)C(=O)CO (centres undefined) [Prednisolone]
324 ± 15 | CC12C=CC(=O)C=C1CCC1C2C(=O)CC2(C)C1CCC2(O)C(=O)CO (centres undefined) [Prednisone]
2.4 ± 0.3 | CCC1(c2ccccc2)C(=O)NCNC1=O [Primidone]
174000 ± 16000 | CC(C)NCC(O)COc1cccc2ccccc12 (centres undefined) [Propanolol]
3.45e+06 ± 340000 | CNC(=C[N+](=O)[O-])NCCSCc1ccc(C[N+](C)(C)[O-])o1 [Ranitidine-N-oxide]
1.75e+06 ± 70000 | CNC(=C[N+](=O)[O-])NCC[S+]([O-])Cc1ccc(CN(C)C)o1 (centres undefined) [Ranitidine-S-oxide]
6.4e+06 ± 500000 | CNC(=C[N+](=O)[O-])NCCSCc1ccc(CN(C)C)o1 [Ranitidine]
3250 ± 260 | CC(C)c1nc(N(C)S(C)(=O)=O)nc(-c2ccc(F)cc2)c1C=CC(O)CC(O)CC(=O)O (centres undefined) [Rosuvastatin]
16.7 ± 1.8 | C[C@H](C[C@@H](Cc1ccc(-c2ccccc2)cc1)NC(=O)CCC(=O)O)C(=O)O [Sacubitrilat (LBQ657)]
< 0.401 | O=C(O)CCC(=O)O [Succinic acid]
1.23e+06 ± 110000 | Nc1ccc(S(=O)(=O)Nc2ncccn2)cc1 [Sulfadiazine]
1.53e+06 ± 100000 | COc1cc(NS(=O)(=O)c2ccc(N)cc2)nc(OC)n1 [Sulfadimethoxine]
933000 ± 81000 | Cc1cc(C)nc(NS(=O)(=O)c2ccc(N)cc2)n1 [Sulfamethazine]
37000 ± 8000 | Cc1cc(N(C2OC(C(=O)O)C(O)C(O)C2O)S(=O)(=O)c2ccc(N)cc2)no1 (centres undefined) [Sulfamethoxazole-N1-glucuronide]
537000 ± 180000 | Nc1ccc(S(=O)(=O)Nc2ccccn2)cc1 [Sulfapyridine]
9.8e+06 ± 700000 | Nc1ccc(S(=O)(=O)Nc2nccs2)cc1 [Sulfathiazole]
41 ± 5 | CC[N+]1([O-])CCCC1CNC(=O)c1cc(S(N)(=O)=O)ccc1OC (centres undefined) [Sulpiride-N-oxide]
1.75e+06 ± 70000 | CCN1CCCC1CNC(=O)c1cc(S(N)(=O)=O)ccc1OC (centres undefined) [Sulpiride]
111 ± 5 | CCCc1nc2c(C)cc(-c3nc4ccccc4n3C)cc2n1Cc1ccc(-c2ccccc2C(=O)OC2OC(C(=O)O)C(O)C(O)C2O)cc1 (centres undefined) [Telmisartan-O-acyl-glucuronide]
120 ± 6.1 | CCCc1nc2c(C)cc(-c3nc4ccccc4n3C)cc2n1Cc1ccc(-c2ccccc2C(=O)O)cc1 [Telmisartan]
